Laboratory results: patent US20200407712A1, “ARRAY-BASED CYCLIC PEPTIDE LIBRARIES” (HealthTell Inc., priority 2018, published 2020)

Key:
human diaphorase (NQO1) = target: T1, human diaphorase (NQO1) (Homo sapiens, UniProt P15559); test: Alexa Fluor 555-diaphorase binding to linear and lactam constrained peptide microarrays; settings: 10.0 nM protein applied to the array; for Diaphorase Lactam, log 10 transformed median intensity: lactam constrained library peptide; for Diaphorase Linear, log 10 transformed median intensity: linear library peptide
T1 construct: purchased SigmaAldrich
T1 sequence (P15559 whole entry): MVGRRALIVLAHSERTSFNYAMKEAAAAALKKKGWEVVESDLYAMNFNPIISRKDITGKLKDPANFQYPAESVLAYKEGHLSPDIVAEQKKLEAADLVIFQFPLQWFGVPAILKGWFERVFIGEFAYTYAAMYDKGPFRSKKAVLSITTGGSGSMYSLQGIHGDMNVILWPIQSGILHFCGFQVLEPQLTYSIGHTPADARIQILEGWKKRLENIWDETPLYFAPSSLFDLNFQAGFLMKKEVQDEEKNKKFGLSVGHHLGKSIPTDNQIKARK
From the text: (§1) Diaphorase is NAD(P)H dehydrogenase (UniProtKB: P15559) encoded by the NQO1 gene. Diaphorase has utility as a model enzyme; for which peptide based synthetic affinity agents to diaphorase are required. A 3.3 million feature peptide array was used to identify potential binding partner peptides for diaphorase. Ferredoxin NADP+ Reductase (FNR) and Ferredoxin are included as counter screens for a specific application, while immunoglobulin depleted human serum (Non-Immunoglobulin Serum Components or NISC) was used as a complex mixture to control for generally sticky peptides.
Two wafers from the same synthesis batch were obtained where one wafer was prepared with the lactam chemistry and constrained into a cyclized form. The degree of cyclization was confirmed using the biotinylation assay described in Examples 9, 17, and 19.
(§2) Peptide arrays were prepared for protein binding by pretreating the arrays in PBST for 30 min at […]. Direct labeled diaphorase (Alexa Fluor™ 555), direct labeled FNR (Alexa Fluor™ 555) and biotinylated ferredoxin were applied to the arrays at 1.0 and 10.0 nM along with direct labeled NISC at 0.001 mg/mL for 1 hr at 37° C. Arrays were washed 3× with PBST and Streptavidin-Alexa Fluor™ 555 was applied to the biotinylated ferredoxin and streptavidin alone arrays. All other arrays received PBST and were incubated for 1 hr at 37° C. Arrays were washed with PBST and p53Ab1-Alexa Fluor™ 647 applied to all arrays to illuminate the edge fiducials for 10 min at 37° C. Following the final incubation arrays were washed in PBST and water, dried and imaged on the ImageXpress ([…]). Triplicate arrays were used for the subsequent analysis except for when rejection of an array was necessary due to the presence of artifacts. Data were analyzed using a custom R script.
Intensities plotted are the log 10 transformed median intensity from replicate arrays. Coloring of the points represents the density of features at that intensity using a gray-scale map. Light grey represents areas of low peptide numbers while black represents the intensity having the highest number of peptides. The diagonal line is equivalence line. […] CLUSTAL sequence alignment (FIG. 27B) of the sequences indicated similarities in amino acid composition. Highlighted amino acids are conserved in over 60% of the peptides for that position or are a chemically similar amino acid (ie: F and Y).
The sequences contain similar amino acid usage. Four peptides having the highest degree of cyclization in the quality control assay were identified and binding intensities compared to other library peptides having one or two amino acid substitutions as shown in FIG. 28. Substitutional analysis provides confidence in the array data by indicating which residues are important for binding. Dark grey boxes highlight indicate a residue conserved in more than 60% of the peptides. Light grey boxes highlight indicate chemically similar amino acids to the conserved residue. RFI is the intensity is the median replicate log 10 intensity for the 10.0 nM Diaphorase.

[1] = tested on: Non-Immunoglobulin Serum Components (NISC); test: NISC counter screen on linear and lactam constrained peptide microarrays; assay type: binding, human; settings: 0.001 mg/mL NISC applied to the array; for NISC Lactam, log 10 transformed median intensity: lactam constrained library peptide; for NISC Linear, log 10 transformed median intensity: linear library peptide
From the text: as §1, §2
Peptides were also selected based on the difference in log 10 transformed intensities between diaphorase and NISC as the counter screen agent (LFGdiaphorase minus LFGNISC). Intensities for 10.0 nM diaphorase and 0.001 mg/mL NISC are shown in FIG. 29A where intensities plotted are the log 10 transformed median intensity from replicate arrays. Coloring of the points represents the density of features at that intensity using a grey colorscale. Light grey represents areas of low peptide numbers while black represents the intensity having the highest number of peptides. The diagonal line is equivalence line. Selectivity vs NISC was not dependent on cyclization as diaphorase also bound the linear forms for some peptides (Table 4). Three peptides having the highest degree of cyclization in the quality control assay were identified and binding intensities compared to other library peptides having one or two amino acid substitutions (FIG. 30) Each CLUSTAL alignment contains the library peptides having a maximum of two substitutions to the parent peptide. Dark grey highlights indicate a residue conserved in more than 60% of the peptides. Light grey highlights indicate chemically similar amino acids to the conserved residue. The amino acid usage is indicated in the sequence logo above the alignment. Substitutional analysis provides confidence in the array data by indicating which residues are important for binding.

[2] = tested on: Ferredoxin NADP+ Reductase (FNR); test: FNR counter screen on linear and lactam constrained peptide microarrays; assay type: binding; settings: 10.0 nM protein applied to the array; for FNR Lactam, log 10 transformed median intensity: lactam constrained library peptide; for FNR Linear, log 10 transformed median intensity: linear library peptide
From the text: as §1, §2

Streptavidin = Streptavidin (Streptomyces avidinii, UniProt P22629); test: Streptavidin-Alexa Fluor 555 alone on linear and lactam constrained peptide microarrays; assay type: binding; settings: for Streptavidin Lactam, log 10 transformed median intensity: lactam constrained library peptide; for Streptavidin Linear, log 10 transformed median intensity: linear library peptide
Sequence of Streptavidin (P22629 25-183, species assumed): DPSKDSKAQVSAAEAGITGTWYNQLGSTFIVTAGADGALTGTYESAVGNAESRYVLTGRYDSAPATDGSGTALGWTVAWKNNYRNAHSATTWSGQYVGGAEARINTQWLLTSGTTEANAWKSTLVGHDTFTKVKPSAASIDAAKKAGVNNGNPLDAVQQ
Experimental: as §2

Ferredoxin = test: Biotinylated ferredoxin counter screen on linear and lactam constrained peptide microarrays; assay type: binding; settings: 10.0 nM biotinylated protein, detected with Streptavidin-Alexa Fluor 555; for Ferredoxin Lactam, log 10 transformed median intensity: lactam constrained library peptide; for Ferredoxin Linear, log 10 transformed median intensity: linear library peptide
From the text: as §1, §2

| Substance | Diaphorase Lactam, log 10 transformed median intensity (human diaphorase (NQO1)) | Diaphorase Linear, log 10 transformed median intensity (human diaphorase (NQO1)) | NISC Lactam, log 10 transformed median intensity [1] | NISC Linear, log 10 transformed median intensity [1] | FNR Lactam, log 10 transformed median intensity [2] | FNR Linear, log 10 transformed median intensity [2] | Streptavidin Lactam, log 10 transformed median intensity (Streptavidin) | Streptavidin Linear, log 10 transformed median intensity (Streptavidin) | Ferredoxin Lactam, log 10 transformed median intensity (Ferredoxin) | Ferredoxin Linear, log 10 transformed median intensity (Ferredoxin) |
| --- | --- | --- | --- | --- | --- | --- | --- | --- | --- | --- |
| IGPNPKNN [library array peptide, tested lactam constrained and linear] | 4.34 | 4.22 | 2.65 | 2.78 | 2.54 | 2.57 | 2.52 | 2.52 | 2.56 | 2.59 |
| PFSGQPNS [library array peptide, tested lactam constrained and linear] | 4.38 | 3.70 | 2.67 | 2.63 | 2.58 | 2.58 | 2.57 | 2.56 | 2.59 | 2.59 |
| PGKPNTQ [library array peptide, tested lactam constrained and linear] | 4.36 | 4.15 | 2.68 | 2.84 | 2.54 | 2.7 | 2.51 | 2.53 | 2.55 | 2.63 |
| PNYSSAP [library array peptide, tested lactam constrained and linear] | 4.31 | 3.91 | 2.63 | 2.61 | 2.56 | 2.54 | 2.52 | 2.52 | 2.56 | 2.55 |
| PPYPNQYQ [library array peptide, tested lactam constrained and linear] | 4.39 | 4.04 | 2.69 | 2.69 | 2.55 | 2.56 | 2.53 | 2.53 | 2.58 | 2.58 |
| PPYTYANN [library array peptide, tested lactam constrained and linear] | 4.35 | 4.00 | 2.66 | 2.63 | 2.54 | 2.53 | 2.53 | 2.52 | 2.56 | 2.55 |
| PTSSYLN [library array peptide, tested lactam constrained and linear] | 4.32 | 3.75 | 2.63 | 2.61 | 2.53 | 2.53 | 2.52 | 2.53 | 2.56 | 2.55 |
| PYSNVFQG [library array peptide, tested lactam constrained and linear] | 4.43 | 3.88 | 2.72 | 2.66 | 2.56 | 2.56 | 2.54 | 2.54 | 2.59 | 2.57 |
| QPQSQQSQ [library array peptide, tested lactam constrained and linear] | 4.28 | 3.42 | 2.59 | 2.59 | 2.55 | 2.55 | 2.53 | 2.54 | 2.56 | 2.56 |
| TFGFNGFP [library array peptide, tested lactam constrained and linear] | 4.49 | 2.84 | 3.49 | 2.62 | 2.59 | 2.55 | 2.53 | 2.52 | 2.70 | 2.55 |
